This is an account of results in US6133273A, “Pyrazolopyrimidine-2,4-dione sulfonamides” (American Home Products Corporation, priority 1999, dated 2000).

One series relates to PDE-IV. Kind of series: Inhibition of Phosphodiesterase IV (PDE-IV) isolated from human U937 cells. Type of series: biochemical. To be noted: U937 cell PDE-IV, 1 μM [3H]-cAMP, 37° C., test compound 0.001 μM to 10 μM. On the procedure:
This assay was used to biochemically assess the ability of a test compound to inhibit PDE-IV isolated from a U937 cell line, where PDE-IV refers to the cGMP-insensitive, cAMP-selective PDE.
Cell Culture: U937 cells were grown in RPMI 1640 medium supplemented with 10% heat-inactivated fetal calf serum and Penicillin/Streptomycin (100 units/100 μg per mL) in a humidified 5% CO2 atmosphere at 37° C. Starter cells were maintained in continuous logarithmic growth by seeding them in 75 cm^2 vented tissue culture flasks at a concentration of 3×10^4 cells/mL and passing them every 3-4 days when the cells reached approximately 8×10^5 cells/mL. For experiments, 3-4 day starter cells were seeded in 225 cm^2 flasks at 1×10^5 cells/mL and harvested 3-4 days later at approx. 6×10^5 cells/mL.
Isolation of PDE-IV: U937 cells were activated with 10 μM dibutyryl cAMP for a period of 4 hours (to up-regulate PDE-IV) and then harvested by centrifugation at 1200×g for 10 min in 250 mL conical centrifuge tubes. The pellet from each 200 mL flask was resuspended in 5 mL buffer A [10 mM Tris-HCl, 5 mM MgCl2, 4 mM EGTA, 5 mM 2-mercaptoethanol, 1 μM leupeptin, 1 μM pepstatin A, and 5 μM phenylmethyl sulfonyl fluoride (PMSF) (pH 7.8)], and the cells were lysed using 3 cycles of freezing (3 min in dry ice/acetone) followed by thawing (warm water). […] To determine which families of PDEs were present, fractions may be assayed for hydrolytic activity with 1 μM [^3 H]-cAMP or 1 μM [^3 H]-cGMP. Additionally, 1 μM [^3 H]-cAMP assays were conducted in the presence of 10 μM rolipram, 10 μM cGMP, or calmodulin (1 unit/0.4 mL plus 10 μM CaCl2).
When prepared in this manner, approximately 80% of total cAMP PDE activity is eluted by Buffer B containing 0.7 M sodium acetate. This PDE activity consists of>90% PDE-IV (as evidenced by its susceptibility to inhibition by rolipram.
PDE assay: PDE activity was measured using a modification of the radioisotope procedure previously described by Thompson et al. (Thompson, W. J., Terasaki, W. L., Epstein, P. M. and Strada, S. J. Adv, Cyclic Nucleotide Res. 1979, 10, 69). Reaction mixtures (0.4 mL) contain 40 mM Tris-HCl (pH 7.8), 4 mM 2-mercaptoethanol, 5 mM MgCl2, 0.1 μM leupeptin, 0.1 μM pepstatin A, 0.1 μM PMSF, 1 μM [3H]-cAMP or 1 μM [^3 H]-cGMP (~200,000 DPM), and enzyme to initiate the reaction. ^3 H-cAMP substrate was prepared as follows: A stock solution of ^3 H-cyclic nucleotide (1000 μCi/mL) was diluted 1:10 in 50% EtOH. 200 μl of this diluted stock solution was added to a cold (unlabeled) cyclic nucleotide solution, made at a concentration of 4 μM. 100 μl of this solution was used per assay tube to achieve a final concentration of 1 μM cyclic nucleotide per assay tube (200,000 DPM). Enzyme activity was determined at 37° C. Reactions were terminated by boiling, incubating with snake venom, and cooling as previously described (Thompson et al., 1979). The reaction mixture was applied to a (0.8×8.5 cm) column containing 0.4 g Dowex I-X8 affinity resin; reaction tubes were rinsed with 0.5 mL of methanol; and this, along with an extra 1 mL of methanol, was applied to the column to elute the ^3 H-reaction products. After all liquid has passed through the column, the column was plunged with a 12 cc syringe plunger. Each column's eluate was collected in a 20 mL scintillation vial containing 10 mL aquasol-2 and counted by scintillation spectrophotometry. [^3 H]-adenosine or [^3 H]-guanosine recovery was corrected for background DPM determined in the absence of enzyme. The amount of enzyme and duration of assay were adjusted to ensure that less than 25% of the substrate was consumed under these conditions.
Measurements: Inhibition by a test compound was measured as a percent reduction of total PDE activity, and calculated as follows: [formula] where A is the PDE activity (mean DPM-background DPM) in the presence of test compound, and B is the total PDE-IV activity (mean DPM-background DPM) in the absence of test compound. […]

Series [1] relates to promoter region of the human calcitonin gene (luciferase reporter, C1-3 cells). Particulars: c1-3 tt cells, 12 h, 30 µM.
Experimental: (§1) This assay was used to determine the ability of a compound to stimulate transcription of a luciferase reporter gene regulated by 3 kb of the promoter region of the human calcitonin gene.
(§2) C1-3 cells were plated at a density of 6,500-7,500 cells per well in a 96-plate microtiter plate. Twenty-four to forty-eight hours later, compounds were added to the wells in triplicate. Compounds were tested at a concentration of 10 μg/mL in 0.5% DMSO.
(§3) The production of light is measured on a luminometer.
(§4) TAR Ratio: Stimulation of calcitonin promoter-dependent transcription is expressed as a ratio of luciferase activity (LUCI) in the presence of test compound compared to the LUCI activity in the untreated control: [formula]
Series [2] relates to C1-3 cell line (calcitonin secretion). Kind of series: Calcitonin Secretion/RIA Assay. To be noted: active if >2.5; for Secretion Ratio: 30 μM, ratio of calcitonin secretion vs untreated control; for fold induction at 30 µM: Homo sapiens, C13, ratio of calcitonin secretion vs untreated control. It counts as cell-based, human. As for the experimental part:
Cell Line: C1-3 (Parent Cell Line: TT-medullary thyroid carcinoma),
Reagent A--(Anti-Calcitonin)
Regent C--(Anti-Goat Precipitant)
Regent D--(Zero Standard).
Reagents E-I--(Calcitonin Standards)
Reagents J-K (Calcitonin Controls: Level and Level 2)
1. Glass tubes were labeled to include Total Count (TC), Nonspecific Binding (NSB), Maximum Binding (Bo), Standards, Controls and Patient Sera in duplicate.
2. […] of Standard Zero (Reagent D) was added to tubes 3 through 6 (NSB and Bo).
3. […] of Standards* (Reagents E-1) was added to tubes 7-16 as follows:
4. […] of Patient Serum 1 was added to tubes 21 and 22, Patient Serum 2 was added to tubes 23 and 24, etc.
5. […] of Reagent L (NSB Buffer) was added to tubes 3 and 4.
6. […] of Reagent A (Anti-Calcitonin) was added to all tubes except tubes 1 & 2 (TC) and tube 3 & 4 (NSB). All tubes were vortexed, covered with parafilm or foil and incubated 44±6 hours at 2-8° C.
7. […] All tubes were vortexed, covered with parafilm or foil and incubated 22±3 hours at 2-8° C.
8. Reagent C (Anti-Goat Precipitant) was mixed gently but thoroughly by inverting the vial several times before use. 1 mL Reagent C was added to all tubes except 1 and 2 (TC). Tubes were vortexed and incubated 20 minutes at room temperature.
9. All tubes were centrifuged at 1300-1500×g for 15 minutes at 2-8° C.
10. Supernatant was decanted immediately after centrifugation taking care to leave the precipitate intact.
11. Tubes were counted 4 minutes or longer.
Secretion Ratio: Stimulation of calcitonin secretion is expressed as a ratio of secretion activity in the presence of test compound compared to the secretion activity in the untreated control: [formula]

Series [3] is described as follows: Serum Calcium/Plasma Calcitonin Determination Assay (acute/subacute, rats). Type of series: in vivo, Sprague Dawley rats. Particulars: subacute, sc, n=8, 30 mg/kg/2x/day; for % Decrease Serum Calcium: Examples 4 and 7 marked * (p<0.05 vs. vehicle); for % Increase Plasma Calcitonin: Examples 5 and 7 marked * (p<0.05 vs. vehicle). As for the experimental part:
This assay was used to evaluate the ability of a test compound to decrease serum calcium and increase plasma calcitonin in rats using either an acute or sub-acute protocol. […]
Subacute Administration Study: After 72 hours acclimatization, young male or female Sprague Dawley rats weighing 170-250 g were randomly divided in groups of 8. The rats were fasted and given deionized H2 O 18 hours prior to the start of the study. The purpose of the fasting is to reduce the variability in serum calcium and plasma calcitonin levels. Each rat was weighed.
C-G Test Compounds 30 mg/kg/2x/day ip or sc
^b In vehicle and test compound groups, the treatments that the
Measurements: Body weight, serum calcium levels and plasma calcitonin levels.
Data Evaluations: The difference in serum calcium and plasma calcitonin between a treatment group and the vehicle group was determined using a one-way analysis of variance with Dunnett's test, or other multiple comparison methods. Compounds were designated active if .rho.<0.05 vs. vehicle value.

Series [4] deals with promoter region of the human calcitonin gene (luciferase reporter, C1-3 cells). The series can be described thus: Calcitonin/Luciferase Reporter Gene Expression Assay. Particulars: Homo sapiens, C13, 12 h, read-out: TAR (transcription activation ratio).
Experimental: as §1, §2, §3, §4

For the molecule “4,6-Dibutyl-1-(3,5-dimethyl-isoxazole-4-sulfonyl)-1,4-dihydro-pyrazolo[4,3- d]pyrimidine-5,7-dione [Example 8]”, in the series on PDE-IV, the “% Inhibition of PDE IV (normalized to rolipram)” value came to 26%. Besides, the “TAR (transcription activation ratio)” value in series [1] was found to be 2.14. In series [2], the “Secretion Ratio” value came out at 3.23.
For “4,6-Dibutyl-1-ethanesulfonyl-1,4-dihydro-pyrazolo[4,3-d]pyrimidine-5,7-dion [Example 10]”, in that order: 45%, 1.43 and 2.90.
Consider `CCCCn1c(=O)c2nn(S(=O)(=O)c3ccc4ccccc4c3)cc2n(CCCC)c1=O` [Example 4, 4,6-Dibutyl-2-(2-naphthalenesulfonyl)-2,4-dihydro-pyrazolo[4,3-d]pyrimidine-5,7-dione], for which the “% Inhibition of PDE IV (normalized to rolipram)” value in the series with PDE-IV is 33%. Also, in series [3], the “% Decrease Serum Calcium” value was found to be 5%. Also, the “% Increase Plasma Calcitonin” value in series [3] amounted to 8%. Moreover, the fold induction at 30 µM in series [4] was 1.75; in series [2] it was 4.91.
Taken in the same sequence, the figures for `CCCCn1c(=O)c2nn(S(=O)(=O)c3ccc(C(C)(C)C)cc3)cc2n(CCCC)c1=O` [Example 5, 4,6-Dibutyl-2-(4-tert-butyl-benzenesulfonyl)-2,4-dihydro-pyrazolo[4,3-d]pyrimidine-5,7-dione] were 63%, 1%, 101%, 2.27 and 4.5.
Taken in the same sequence, the figures for `CCCCn1c(=O)c2nn(S(=O)(=O)c3cc(Cl)c(Cl)s3)cc2n(CCCC)c1=O` [Example 6, 4,6-Dibutyl-2-(4,5-dichloro-thiophene-2-sulfonyl)-2,4-dihydro-pyrazolo[4,3-d]pyrimidine-5,7-dione] were 100%, 0%, 12%, 1.69 and 3.4.
For `CCCCn1c(=O)c2cn(S(=O)(=O)c3c(C)nn(C)c3Cl)nc2n(CCCC)c1=O` [Example 7], the “% Decrease Serum Calcium” value in series [3] is 4%. Besides, the “% Increase Plasma Calcitonin” value in series [3] is 80%. In addition, the fold induction at 30 µM in series [4] was 2.13; in series [2], 2.92.
With `Cn1c(=O)c2cn(S(=O)(=O)CCCCl)nc2n(C)c1=O` [Example 21, 2-(3-Chloro-propane-1-sulfonyl)-5,7-dimethyl-2,7-dihydro-pyrazolo[3,4-d]pyrimidine-4,6-dione], the “% Inhibition of PDE IV (normalized to rolipram)” value in the series with PDE-IV came to 68%. For the same molecule, the fold induction at 30 µM in series [4] was 1.2; in series [2], 1.02.
Taken in the same sequence, the figures for `O=c1c2cn(S(=O)(=O)CCCCl)nc2n(CC2CC2)c(=O)n1CC1CC1` [Example 22, 2-(3-Chloro-propane-1-sulfonyl)-5,7-bis-cyclopropylmethyl-2,7-dihydro-pyrazolo[3,4-d]pyrimidine-4,6-dione] were 30%, 1.6 and 2.93.
